Test results reported in US10048272B2, “High-affinity small molecule formylpeptide receptor ligands from screening of combinatorial mixture-based libraries” (STC.UNM, priority 2013, dated 2018).
Entries after “also recorded” stand apart in the source; their conditions may differ.

Key:
FPR1 [1] = molecular target: T1, FPR1 (Homo sapiens, UniProt P21462); conditions: literature; cited from earlier work
T1 sequence (P21462 1-350): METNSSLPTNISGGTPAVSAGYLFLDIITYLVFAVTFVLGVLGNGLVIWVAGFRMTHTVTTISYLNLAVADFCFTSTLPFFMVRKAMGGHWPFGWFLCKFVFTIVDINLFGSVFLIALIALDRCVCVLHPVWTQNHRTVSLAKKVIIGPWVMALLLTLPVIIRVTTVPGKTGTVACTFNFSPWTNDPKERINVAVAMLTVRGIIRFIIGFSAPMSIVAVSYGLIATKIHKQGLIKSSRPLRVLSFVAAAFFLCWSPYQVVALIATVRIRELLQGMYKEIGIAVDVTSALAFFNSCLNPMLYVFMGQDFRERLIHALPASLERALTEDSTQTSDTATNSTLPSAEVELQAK

FPR1 [2] = molecular target: T1, FPR1; assay: Duplex flow cytometry receptor binding assay (WPep-FITC fluorescent ligand competition), U937/FPR1 cells; set-up: expressed in transfected cells; host or cells: U937 cells (U937/FPR1); conditions: for Ki: WPep-FITC displacement, U937/FPR1 cells
Method: Flow cytometry receptor binding assay. The assay was performed in a “duplex” format in which U937/FPR1 cells were tested together with RBL/FPR2 cells as previously described (Young, et al., 2009)(PubChem Summary AIDs 805 and 1202). The FPR1-expressing cells were stained with a red-fluorescent dye, FuraRed™ allowing them to be distinguished from the FPR2-expressing cells during flow cytometric analysis. A fluorescein label was conjugated to the lysine residue of the WPep peptide (WKYMVm) to produce a fluorescent ligand (WPep-FITC) that bound both FPR1 and FPR2. […] Assays were performed in polystyrene 384-well plates with small volume wells (Greiner #784101). Additions to wells were in sequence as follows: (1) test compounds and control reagents (5 ul/well); (2) the combined suspension of U937/FPR1 and RBL/FPR2 cells (5 ul/well) and; (3) (after 30 min, 4° C. incubation) WPep-FITC (5 ul/well). After an additional 45 min, 4° C. incubation, plates were immediately analyzed using flow cytometry. The assay response range was defined by replicate control wells containing unlabeled receptor-blocking peptide (positive control) or buffer (negative control). fMLFF was used as the FPR1-blocking peptide and unlabeled WPep as the FPR2-blocking peptide. Final concentration of WPep-FITC was 5 nM. The assay was homogeneous in that cells, compounds and fluorescent peptide were added in sequence and the wells subsequently analyzed without intervening wash steps. The HyperCyt™ high-throughput flow-cytometry platform (Kuckuck, et al., 2001; Ramirez, et al., 2003) was used to sequentially sample cells from wells of 384-well microplates (2 ul/sample) for presentation to a CyAn flow cytometer (Beckman-Coulter) at a rate of 40 samples/min. Fluorescence was excited at 488 nm and detected with 530/40 and 680/30 optical bandpass filters for WPep-FITC and FuraRed™, respectively. Test compound inhibition of fluorescent peptide binding was calculated as percent inhibition. WPep-FITC fluorescence intensity measurements of cells from control wells were also used to calculate Z′ factors (Zhang, et al., 1999), which ranged between 0.6 and 0.8 for each assay.
Dose response determinations. Fluorescent ligand competition dose response assays were performed essentially as described for single concentration assays except that test compounds were initially tested at a starting concentration of 10 mM in DMSO and serially diluted 1:3 to produce final concentration ranging from 67 μM to 0.1 nM. The resulting ligand competition curves were fitted by Prism software (GraphPad Software, Inc., San Diego, Calif.) using nonlinear least-squares regression in sigmoidal dose response model with variable slope, also known as the four parameter logistic equation. […]
(§1) FPR expression ranged from 100,000 to 200,000 receptors per cell in different assays as determined by comparison to standard curves generated with Fluorescein Reference Standard Microbeads (Bangs Laboratories, Fishers, Ind.). […] To account for effects of possible ligand depletion at the higher receptor concentrations, Ki values were calculated from IC50 estimates by the method of Munson and Rodbard (Munson and Rodbard, 1988): Ki=Kd×[y0/(y0+2]+IC50/{1+[p*×(y0+2)]/[2×Kd×(y0+1)]+y0} in which y0 is the initial bound-to-free concentration ratio for the fluorescent ligand, p* is the added concentration of fluorescent ligand and Kd is the dissociation constant for the fluorescent ligand.

FPR2 [3] = molecular target: T2, FPR2 (Homo sapiens, UniProt P25090); assay: Intracellular calcium mobilization assay, FPR2 cells (agonist and antagonist determinations); type: cell-based; set-up: expressed in transfected cells; conditions: for Functional activity in FPR2-mediated intracellular Ca2+ response (agonist/antagonist): result in words
T2 sequence (P25090 1-351): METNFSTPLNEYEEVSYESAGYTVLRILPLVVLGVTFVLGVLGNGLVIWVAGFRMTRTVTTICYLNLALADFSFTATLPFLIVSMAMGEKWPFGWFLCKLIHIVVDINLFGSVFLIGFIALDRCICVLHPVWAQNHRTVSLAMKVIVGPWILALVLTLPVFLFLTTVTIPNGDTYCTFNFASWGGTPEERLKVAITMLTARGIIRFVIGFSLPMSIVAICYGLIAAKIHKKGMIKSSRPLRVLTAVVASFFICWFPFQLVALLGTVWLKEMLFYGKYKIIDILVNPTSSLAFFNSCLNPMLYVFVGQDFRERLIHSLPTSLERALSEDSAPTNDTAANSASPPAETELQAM
Method: (§2) Intracellular calcium mobilization assays. Intracellular calcium mobilization assays were performed as previously described with modifications (Edwards, et al., 2005). Briefly, cells were collected by centrifugation (200×g, 10 min, 24° C.) and suspended at 10^6/ml in 1 ml PBS (Ca^2+, Mg^2+ free). Cells were added with 210 nM Fluo4 (FPR2 cells) or with a combination of 210 nM Fluo4 and 210 nM FuraRed (FPR1 cells). After incubation for 30 min at 24° C. cells were washed with 1 ml PBS, suspended in 1 ml TCM (RPMI, 10% FBS) and stored in the dark at 24° C. until used in assays. For test compound agonist determinations, 50 μL from FPR1 and FPR2 cell suspensions were combined, analyzed 10 s in an Accuri C6 flow cytometer (BD Biosciences) to determine baseline Fluo4 fluorescence in the FL1 channel (530/20 nm), then added with 50 μL containing test compounds and analyzed an additional 110 s to evaluate changes in Fluo4 fluorescence intensity. During the analysis FPR1 cells were distinguished from FPR2 cells on the basis of FuraRed fluorescence intensity detected in the FL3 channel ([…]). The innate calcium response was quantified as the maximum % of cells that exceeded the baseline Fluo4 fluorescence intensity over the course of the analysis. These responses were normalized to the innate calcium responses observed in the presence of 11 nM control peptides: 4pep for FPR1 cells and Wpep for FPR2 cells as follows: Normalized Calcium Response (%)=100×innate response % to test compound/innate response % to control peptide.
(§3) For test compound antagonist determinations, 10 μL test compound was added to the combined FPR1/FPR2 cell mixture and incubated 5 min at 24° C. prior to assessing the innate calcium response to subsequent addition of fMLFF or Wpep peptide. In these determinations, fMLFF and Wpep were used at concentrations that produced 90% of the maximal intracellular calcium response (EC90), and responses were normalized with respect to the innate response to each control peptide observed in the absence of test compounds.
(§4) Intracellular Ca^2+ dose response curves were also fitted using nonlinear least-squares regression in a sigmoidal dose response model with variable slope. Curve fit statistics were used to determine the concentration of added test compound competitor that inhibited Ca^2+ responses by 50 percent (IC50) for antagonists or effected increases in Ca^2+ response by 50% (EC50) for agonists. Since responses were normalized relative to control stimuli the top and bottom of the fitted curves were fixed at 100 and 0.

FPR2 [4] = molecular target: T2, FPR2; assay: Duplex flow cytometry receptor binding assay (WPep-FITC fluorescent ligand competition), RBL/FPR2 cells; set-up: expressed in transfected cells; conditions: for FPR2 selectivity: FPR2 over FPR1
Method: Flow cytometry receptor binding assay. The assay was performed in a “duplex” format in which U937/FPR1 cells were tested together with RBL/FPR2 cells as previously described (Young, et al., 2009)(PubChem Summary AIDs 805 and 1202). The FPR1-expressing cells were stained with a red-fluorescent dye, FuraRed™ allowing them to be distinguished from the FPR2-expressing cells during flow cytometric analysis. A fluorescein label was conjugated to the lysine residue of the WPep peptide (WKYMVm) to produce a fluorescent ligand (WPep-FITC) that bound both FPR1 and FPR2. […] Assays were performed in polystyrene 384-well plates with small volume wells (Greiner #784101). Additions to wells were in sequence as follows: (1) test compounds and control reagents (5 ul/well); (2) the combined suspension of U937/FPR1 and RBL/FPR2 cells (5 ul/well) and; (3) (after 30 min, 4° C. incubation) WPep-FITC (5 ul/well). After an additional 45 min, 4° C. incubation, plates were immediately analyzed using flow cytometry. The assay response range was defined by replicate control wells containing unlabeled receptor-blocking peptide (positive control) or buffer (negative control). fMLFF was used as the FPR1-blocking peptide and unlabeled WPep as the FPR2-blocking peptide. Final concentration of WPep-FITC was 5 nM. The assay was homogeneous in that cells, compounds and fluorescent peptide were added in sequence and the wells subsequently analyzed without intervening wash steps. […] Fluorescence was excited at 488 nm and detected with 530/40 and 680/30 optical bandpass filters for WPep-FITC and FuraRed™, respectively. Test compound inhibition of fluorescent peptide binding was calculated as percent inhibition. WPep-FITC fluorescence intensity measurements of cells from control wells were also used to calculate Z′ factors (Zhang, et al., 1999), which ranged between 0.6 and 0.8 for each assay. […]
as §1

FPR1 [5] = molecular target: T1, FPR1; assay: Intracellular calcium mobilization assay, FPR1 cells (agonist and antagonist determinations); type: cell-based; set-up: expressed in transfected cells; host or cells: U937 cells (U937/FPR1); conditions: for Functional activity in FPR1-mediated intracellular Ca2+ response (agonist/antagonist): result in words
Method: as §2, §3, §4

FPR2 [6] = molecular target: T2, FPR2; conditions: literature; cited from earlier work
[7] = second compound of the printed pair relative to the first (1754-26 to 1754-56)

SMILES: CCCCOc1ccc(C(=O)NN2C(=O)c3ccccc3NC2c2ccc(O)cc2)cc1 (centres unmarked) [Quin-C7]
- Functional activity at FPR1 (in words) (FPR1 [1]): antagonist

SMILES: CCCC[C@H]1CNC(=O)C(=O)N1C[C@@H]1CCCN1C[C@@H](CCC)N1C[C@@H](Cc2ccc(O)cc2)N(CCc2ccc(-c3ccccc3)cc2)C(=O)C1=O [1754-56]
- Receptor selectivity, FPR1 versus FPR2, in ligand competition binding (in words) (FPR1 [2]): FPR1 selective
- Increase of activity for FPR1 (potency difference, pKi) (FPR1 [2]; [7]): 1.36 log units
- EC50, FPR2-mediated Ca2+ response, agonist (in words) (FPR2 [3]; matched the Ki value of the ligand displacement assay): low micromolar
- Response efficacy (fitted Top), Ca2+ response in FPR2 cells (FPR2 [3]; maximum response relative to control peptide Wpep (WKYMVm)): 98%
- Functional activity in FPR2-mediated intracellular Ca2+ response (agonist/antagonist) (FPR2 [3]): agonist
- Decrease of activity for FPR2 (potency difference, pKi) (FPR2 [4]; [7]): 1.28 log units
- Functional activity in FPR1-mediated intracellular Ca2+ response (agonist/antagonist) (FPR1 [5]): antagonist

SMILES: CC(C)[C@H]1CNC(=O)C(=O)N1C[C@@H]1CCCN1C[C@@H](Cc1ccc2ccccc2c1)N1C[C@@H](Cc2ccc(O)cc2)N(CC2CCCCC2)C(=O)C1=O [1754-31]
- Receptor selectivity, FPR1 versus FPR2, in ligand competition binding (in words) (FPR1 [2]): FPR2 selective
- Ki (FPR1 [2]): > 10000 nM
- IC50 (FPR2 [3]; antagonist determination, Wpep at EC90, read-out: IC50, intracellular Ca2+ response, FPR2 antagonist): 81 nM
- Functional activity in FPR2-mediated intracellular Ca2+ response (agonist/antagonist) (FPR2 [3]): antagonist
- Ki (FPR2 [4]; WPep-FITC displacement, RBL/FPR2 cells): 1 nM
- FPR2 selectivity (FPR2 [4]; as printed in b133 ('nM Ki')): > 10,000 nM
- FPR2 selectivity (FPR2 [4]; no unit): > 10,000

SMILES: CCCCOc1ccc(C(=O)NN2C(=O)c3ccccc3NC2c2ccc(OC)cc2)cc1 (centres unmarked) [Quin-C1]
- Functional activity at FPR2 (in words) (FPR2 [6]): agonist

SMILES: CCCC[C@H](CN(C(=O)Nc1ccccc1)[C@@H](C)CNC(=O)Nc1ccccc1)N(CCCCc1ccccc1)C(=O)Nc1ccccc1 [1753-103]
- Ki (FPR1 [2]): 4 nM
- EC50 (FPR1 [5]; agonist determination, read-out: EC50, intracellular Ca2+ response, FPR1 agonist): 131 nM
- Response efficacy (fitted Top), Ca2+ response in FPR1 cells (FPR1 [5]; maximum response relative to control peptide 4pep (fMLFF)): 78%
- Functional activity in FPR1-mediated intracellular Ca2+ response (agonist/antagonist) (FPR1 [5]): selective partial agonists; also recorded: agonist
